The test system of one data set is gag-pol stem loop. In words: Gel shift analysis of RNA oligonucleotide sets binding to HIV gag-pol stem loop (triple strand). As to conditions: 100 mM NaCl, 25 mM TRIS acetate pH5, 2 mM MgCl2, 1 mM spermidine. The text has this: Binding to double stranded DNA or RNA is possible by formation of a three stranded complex with the incoming third strand binding in the major groove of the duplex RNA or DNA. The molecular nature of the interaction between the oligomer and target need not be known in order to practice the technique. Thus, it is possible that novel interactions between oligomers and DNA or RNA will be responsible for binding. One of the limitations in the design of triple strand interactions is the need to have a long stretch of homopurines as a target. The 3' (right) side of the gag-pol stem loop is homopurine except for a pair of cytosines near the bottom of the stem. To determine the best oligonucleotide to bind to the gag-pol stem loop, a group of RNA oligonucleotide sets was designed to bind to the purine-rich strand of the gag-pol stem-loop by Hoogstein base pairing and prepared in accordance with Examples 2 and 6. Binding to the gag-pol stemloop was measured by gel shift analysis as previously described in Example 8 with the following modifications: the radiolabeled gag-pol RNA was incubated with the oligonucleotide in 100 mM NaCl, 25 mM TRIS acetate pH5, 2 mM Mg Cl2, 1 mM spermidine. The gel was a 15% acrylamide with 50 mM NaCl 2 mM MgCl2 added to the running buffer.
(In general: A gel shift assay detects complexes by their altered migration in electrophoresis.)

A further data set concerns c-rel. The data set is described as follows: Capture assay for c-rel binding (streptavidin plates, Jurkat nuclear extract). As to conditions: library pools at 1 μM; native binding site at 100 nM. Here is the method: Crude nuclear extracts were prepared as detailed by Franza, et al., Nature 1987, 330, 391, from Jurkat cells stimulated 4 hours with 1 μM PHA and 100 nM PMA to induce the expression of rel. The extract was then preabsorbed with 100 μl streptavidin agarose per ml for 10 minutes. This was followed with the addition of poly dI.dC as a non specific competitor at a concentration of 100 μg/ml of extract.
Phosphorothioate oligonucleotides were synthesized with the sequence […]-B (SEQ ID NO: 22) and […]-B (SEQ ID NO:23), where B=biotin, as described in Examples 3 and 9. The complementary oligonucleotides were then hybridized to create the double stranded NF-kB binding site, which was used as a positive control in the assay. A combinatorial phosphorothioate library was also synthesized with the general sequence TNNNXNNNT-B, where X=A, G, C, or U as described in Examples 3 and 6.
Each pool of the library was incubated in triplicate at a concentration of 1 μM with 100 μl of the extract for 20 minutes at room temperature. As a positive control, the native double stranded NF-kB binding site was incubated at 100 nM with the same amount of extract. Following the incubation each mixture was added to streptavidin coated microtiter plates (Elkay Lab Systems) and incubated 20 minutes. […] Color development was measured 2 hours later by reading absorbance at 405 nm on a Titertek Multiscan ELISA plate reader.

For data set [1], the system named is HIV-tat protein. The data set is described as follows: Competition assay for HIV-tat binding against ΔTAR-B. As to conditions: RNA library pools at 1 μM, 10 μM and 100 μM; ΔTAR-B 100 nM. The text has this:
A truncated version (residues 16-45; ΔTAR) of the TAR hairpin previously shown to bind tat was synthesized using 2'-O-methyl oligonucleotides as described in Example 4 and was biotin conjugated on the 3' end (ΔTAR-B) as described in Example 9. A combinatorial library was synthesized using RNA oligonucleotides with the sequence CCA NNX NNNNGCCUGGGAGCNNNNUGG, where X=A (SEQ ID NO:24), G (SEQ ID NO:25), C (SEQ ID NO:26), or U (SEQ ID NO:27) as described in Example 2 and 6.
The pools of the library at 0, 1, 10, or 100 μM were incubated with 100 μl of purified recombinant tat transcription factor (Repligen) at a concentration of 20 pg/μl for 15'. This and all other steps were carried out at room temperature. The competitor, ΔTAR-B, was then added at a concentration of 100 nM. Following a 20' incubation, the mixture was bound to streptavidin-coated microtiter plates as in Example 33. After the non-bound molecules were washed away with PBS, 100 μl of 1:500 tat antisera was added to each well for 2 hours. Protein A/G-alkaline phosphatase was bound to the tat antibodies followed by the addition of the PNPP substrate and quantitation of A 405 as detailed in Example 33.
In the competition mode library pools which bind the transcription factor prevent binding to the natural target (in this case the competitor ΔTAR) also present in the assay. […]

Data set [2] has as its system HIV-tat protein. The data set is described as follows: Capture assay for HIV-tat binding. As to conditions: phosphorothioate library pools at 100 nM. Here is the method:
As a positive control, the native double stranded NF-kB binding site was incubated at 100 nM with the same amount of extract. Following the incubation each mixture was added to streptavidin coated microtiter plates (Elkay Lab Systems) and incubated 20 minutes. Unbound molecules were washed away with PBS. 10 μl of PBS plus 5% fetal calf serum was added to each well for 20 minutes at room temperature followed by aspiration and addition of 100 μl of 1:500 tat antisera in PBS plus 1% FCS for 2 hours at room temperature. The wells were then washed with PBS and 100 μl of 1:5000 Protein A/G-alkaline phosphatase (Pierce) added in PBS for 2 hours at room temperature. […] Color development was measured 2 hours later by reading absorbance at 405 nm on a Titertek Multiscan ELISA plate reader.
This and all other steps were carried out at room temperature. […] Protein A/G-alkaline phosphatase was bound to the tat antibodies followed by the addition of the PNPP substrate and quantitation of A 405 as detailed in Example 33.
Each pool of the phosphorothioate combinatorial library described in Example 33 was incubated at a concentration of 100 nM with tat protein as described in Example 34. Following incubation of the protein with the library pools, the complexes were captured on streptavidin plates and binding quantitated as in Example 33. […]

In general, Kd refers to the free concentration of one partner at which half of the binding sites on the other are occupied at equilibrium, for simple one-to-one binding.

As to “D2: RNA oligonucleotide (CCCUUCCCUUC; RNA, backbone not given here) [Set D2]”, in the data set with gag-pol stem loop, the Kd is 10 µM.

Take “native NF-kB binding site: double stranded biotinylated phosphorothioate NF-kB binding site, SEQ ID NO: 22 and 23, positive control (chain 1 GGGGACTTTCCGCTGGGACTTTCTAG; chain 2 CTGGAAAGTCCCAGCGGAAGGTCCCC; all phosphorothioate, sugars by position and methylation of C not given here; biotinylated)”: the “amount of c-rel bound, in words” value in the data set with c-rel was “binds the greatest amount of rel”.

In the case of “B2: RNA oligonucleotide (CCCUUCCCGUC; RNA, backbone not given here) [Set B2]”, the Kd with gag-pol stem loop came to 10 µM.

For the substance “C2: RNA oligonucleotide (CCCUUCCCCUC; RNA, backbone not given here) [Set C2]”, the dissociation constant (Kd) in the data set with gag-pol stem loop is 1 µM.

“A2: RNA oligonucleotide (CCCUUCCCAUC; RNA, backbone not given here) [Set A2]”: the dissociation constant (Kd) with gag-pol stem loop is 10 µM.

As for “pool fixed at G: RNA library pool CCA NNX NNNNGCCUGGGAGCNNNNUGG, X=G (CCANNGNNNNGCCUGGGAGCNNNNUGG; RNA, backbone and the base at N not given here)”, the “inhibition of tat binding to ΔTAR, in words” value with HIV-tat protein [1] is listed as “least effect”. Also, in the data set with HIV-tat protein [2], the “amount of tat bound, in words” value was “clearly binds more tat than the others”.
